Literature values, collected in PMC9516332 (Frontiers in Oncology, 2022).
Like-named read-outs stand apart in the source and are kept apart here.

Tests used:
Settings in all cases: cited from earlier work
[1] = target: T1, panel of 255 wild-type kinases (Homo sapiens, UniProt Q8IWQ3)
T1 sequence (Q8IWQ3 1-736): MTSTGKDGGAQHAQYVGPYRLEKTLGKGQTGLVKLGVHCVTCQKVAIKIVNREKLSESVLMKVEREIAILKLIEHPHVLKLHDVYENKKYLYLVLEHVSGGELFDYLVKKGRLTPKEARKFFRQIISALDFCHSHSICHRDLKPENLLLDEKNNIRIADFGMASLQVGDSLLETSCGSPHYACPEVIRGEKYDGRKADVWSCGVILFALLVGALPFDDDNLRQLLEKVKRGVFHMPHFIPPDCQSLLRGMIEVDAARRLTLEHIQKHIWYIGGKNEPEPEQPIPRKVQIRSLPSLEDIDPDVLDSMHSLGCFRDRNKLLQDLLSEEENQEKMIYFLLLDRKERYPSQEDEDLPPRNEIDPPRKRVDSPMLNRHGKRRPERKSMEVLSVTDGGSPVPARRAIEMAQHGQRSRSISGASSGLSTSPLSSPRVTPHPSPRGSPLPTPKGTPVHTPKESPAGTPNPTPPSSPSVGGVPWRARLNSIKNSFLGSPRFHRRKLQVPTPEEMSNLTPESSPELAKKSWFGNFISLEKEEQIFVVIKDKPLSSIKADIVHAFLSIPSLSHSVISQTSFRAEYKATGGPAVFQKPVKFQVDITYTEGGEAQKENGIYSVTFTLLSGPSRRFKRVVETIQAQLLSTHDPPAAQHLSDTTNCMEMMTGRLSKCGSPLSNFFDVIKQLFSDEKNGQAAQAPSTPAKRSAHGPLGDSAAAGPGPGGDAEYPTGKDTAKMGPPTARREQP

[2] = target: T2, panel of 255 wild-type kinases (Homo sapiens, UniProt Q96KB5)
T2 sequence (Q96KB5 1-322): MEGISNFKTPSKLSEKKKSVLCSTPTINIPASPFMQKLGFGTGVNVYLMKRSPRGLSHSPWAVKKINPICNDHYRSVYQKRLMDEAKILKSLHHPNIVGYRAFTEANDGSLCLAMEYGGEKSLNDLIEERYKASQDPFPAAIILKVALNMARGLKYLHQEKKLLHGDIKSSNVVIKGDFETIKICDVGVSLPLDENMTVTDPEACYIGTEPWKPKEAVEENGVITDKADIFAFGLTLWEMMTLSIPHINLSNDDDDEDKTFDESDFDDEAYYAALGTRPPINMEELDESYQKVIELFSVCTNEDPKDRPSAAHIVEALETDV

[3] = target: panel of 255 wild-type kinases (Homo sapiens, UniProt P22455)
[4] = target: panel of 255 wild-type kinases (Homo sapiens, UniProt P07333)
[5] = target: panel of 255 wild-type kinases (Homo sapiens, UniProt O14578)
[6] = target: panel of 255 wild-type kinases (Homo sapiens, UniProt Q02763)
[7] = target: T3, panel of 255 wild-type kinases (Homo sapiens, UniProt O60285)
T3 sequence (O60285 1-661): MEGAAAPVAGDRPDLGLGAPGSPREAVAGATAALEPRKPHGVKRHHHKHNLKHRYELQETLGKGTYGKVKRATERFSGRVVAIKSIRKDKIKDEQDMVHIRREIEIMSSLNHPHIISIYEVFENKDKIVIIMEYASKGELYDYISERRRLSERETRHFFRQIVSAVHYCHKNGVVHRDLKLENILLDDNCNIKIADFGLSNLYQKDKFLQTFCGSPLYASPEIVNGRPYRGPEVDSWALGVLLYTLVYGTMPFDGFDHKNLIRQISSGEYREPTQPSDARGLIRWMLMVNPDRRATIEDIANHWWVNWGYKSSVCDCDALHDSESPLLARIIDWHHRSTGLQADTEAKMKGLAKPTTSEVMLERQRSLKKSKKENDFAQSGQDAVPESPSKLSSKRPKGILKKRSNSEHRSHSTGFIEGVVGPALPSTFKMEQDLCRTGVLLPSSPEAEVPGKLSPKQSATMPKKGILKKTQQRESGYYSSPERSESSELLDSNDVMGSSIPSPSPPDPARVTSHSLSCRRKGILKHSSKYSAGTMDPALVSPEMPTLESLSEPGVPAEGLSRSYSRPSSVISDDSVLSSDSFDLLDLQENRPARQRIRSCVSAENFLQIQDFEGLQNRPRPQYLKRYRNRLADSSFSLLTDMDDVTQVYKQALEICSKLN

[8] = BRSK2 kinase assay, 1 µmol/L single concentration, ref DOI: 10.1158/1535-7163.MCT-18-0877
[9] = kinase PBK, 1 µmol/L single concentration, ref DOI: 10.1158/1535-7163.MCT-18-0877
[10] = kinase FGFR4, 1 µmol/L single concentration, ref DOI: 10.1158/1535-7163.MCT-18-0877
[11] = kinase FMS, 1 µmol/L single concentration, ref DOI: 10.1158/1535-7163.MCT-18-0877
[12] = kinase CRIK, 1 µmol/L single concentration, ref DOI: 10.1158/1535-7163.MCT-18-0877
[13] = kinase TIE2, 1 µmol/L single concentration, ref DOI: 10.1158/1535-7163.MCT-18-0877
[14] = NuaK1, 1 µmol/L single concentration, ref DOI: 10.1158/1535-7163.MCT-18-0877
[15] = BRSK2 kinase assay, 1 µmol/L single concentration, ref DOI: 10.1371/journal.pone.0092146
[16] = kinase PBK, 1 µmol/L single concentration, ref DOI: 10.1371/journal.pone.0092146
[17] = kinase FGFR4, 1 µmol/L single concentration, ref DOI: 10.1371/journal.pone.0092146
[18] = kinase FMS, 1 µmol/L single concentration, ref DOI: 10.1371/journal.pone.0092146
[19] = kinase CRIK, 1 µmol/L single concentration, ref DOI: 10.1371/journal.pone.0092146
[20] = kinase TIE2, 1 µmol/L single concentration, ref DOI: 10.1371/journal.pone.0092146
[21] = NuaK1, 1 µmol/L single concentration, ref DOI: 10.1371/journal.pone.0092146

Compound | %-inhibition BRSK2 [1, 8] [%] | %-inhibition at 1 µmol/L, PBK [2, 9] [%] | %-inhibition at 1 µmol/L, FGFR4 [3, 10] [%] | %-inhibition at 1 µmol/L, FMS [4, 11] [%] | %-inhibition at 1 µmol/L, CRIK [5, 12] [%] | %-inhibition at 1 µmol/L, TIE2 [6, 13] [%] | %-inhibition, NuaK1 [7, 14] [%] | %-inhibition BRSK2 [1, 15] [%] | %-inhibition at 1 µmol/L, PBK [2, 16] [%] | %-inhibition at 1 µmol/L, FGFR4 [3, 17] [%] | %-inhibition at 1 µmol/L, FMS [4, 18] [%] | %-inhibition at 1 µmol/L, CRIK [5, 19] [%] | %-inhibition at 1 µmol/L, TIE2 [6, 20] [%] | %-inhibition, NuaK1 [7, 21] [%] | other results
CC#CC(=O)N1CCC[C@H]1c1nc(-c2ccc(C(=O)Nc3ccccn3)cc2)c2c(N)nccn12 [acalabrutinib] | -10 | -15 | -9 | 8 | -5 | -5.36 | -3.51 |  |  |  |  |  |  |  | 
CCc1cc2c(cc1N1CCC(N3CCOCC3)CC1)C(C)(C)c1[nH]c3cc(C#N)ccc3c1C2=O [alectinib] | -2.35 | -2.63 | 4 | 19 | 2.31 | 2 | -19 |  |  |  |  |  |  |  | 
COc1cc(N2CCC(N3CCN(C)CC3)CC2)ccc1Nc1ncc(Cl)c(Nc2ccccc2P(C)(C)=O)n1 [brigatinib] |  |  |  |  |  |  |  |  |  |  |  |  |  |  | %-inhibition BRSK2 [1]: 77%; %-inhibition at 1 µmol/L, PBK [2]: 1.09%; %-inhibition at 1 µmol/L, FGFR4 [3]: 82%; %-inhibition at 1 µmol/L, FMS [4]: 100%; %-inhibition at 1 µmol/L, CRIK [5]: 3.33%; %-inhibition at 1 µmol/L, TIE2 [6]: 75%; %-inhibition, NuaK1 [7]: 90%
Cc1cc(Nc2ncc(Cl)c(Nc3ccccc3S(=O)(=O)C(C)C)n2)c(OC(C)C)cc1C1CCNCC1 [ceritinib] | 24 | -11 | 69 | 55 | -0.933 | -13 | 17 |  |  |  |  |  |  |  | 
O=C(c1ccc(F)c(F)c1Nc1ccc(I)cc1F)N1CC(O)([C@@H]2CCCCN2)C1 [cobimetinib] | 3 | 76 | -0.0569 | 5 | 0.417 | 19 | 2.32 |  |  |  |  |  |  |  | 
C[C@@H](Oc1cc(-c2cnn(C3CCNCC3)c2)cnc1N)c1c(Cl)ccc(F)c1Cl [crizotinib] |  |  |  |  |  |  |  | 8 | -14 | 0 | 92 | -12 | 83 | 99 | 
CC(C)(C)c1nc(-c2cccc(NS(=O)(=O)c3c(F)cccc3F)c2F)c(-c2ccnc(N)n2)s1 [dabrafenib] |  |  |  |  |  |  |  | 30 | 12 | 19 | 15 | -2.74 | 81 | 7 | 
C=CC(=O)N1CCC[C@@H](n2nc(-c3ccc(Oc4ccccc4)cc3)c3c(N)ncnc32)C1 [ibrutinib] | 16 | -9 | 37 | 19 | -0.165 | 29 | 7 |  |  |  |  |  |  |  | 
CO[C@@H]1[C@H](N(C)C(=O)c2ccccc2)C[C@H]2O[C@]1(C)n1c3ccccc3c3c4c(c5c6ccccc6n2c5c31)C(=O)NC4 [midostaurin] | 90 | -7 | 38 | 95 | 1.32 | 30 | 101 |  |  |  |  |  |  |  | 
C=CC(=O)Nc1cc(Nc2nccc(-c3cn(C)c4ccccc34)n2)c(OC)cc1N(C)CCN(C)C [osimertinib] | -0.439 | 77 | 11 | 47 | 7 | 3.73 | 48 |  |  |  |  |  |  |  | 
CC(=O)Nc1cccc(-n2c(=O)n(C3CC3)c(=O)c3c(Nc4ccc(I)cc4F)n(C)c(=O)c(C)c32)c1 [trametinib] |  |  |  |  |  |  |  | 5.38 | -3.79 | -3 | -4 | -4.25 | -7 | -0.634 | 
CCCS(=O)(=O)Nc1ccc(F)c(C(=O)c2c[nH]c3ncc(-c4ccc(Cl)cc4)cc23)c1F [vemurafenib] |  |  |  |  |  |  |  | -6 | -12 | 5 | 6 | -6 | -2.42 | 4 | 
